Values quoted from earlier work as cited in patent US6277391A, “Composition and method of treating diseases and disorders of the prostate” (Samyang Corporation, priority 1998, dated 2001).

Conditions: 300 mg PO b.i.d., oral or intravenous, at the end of regimen; 60480 min

ofloxacin concentrations in the prostate: 1 to 4 µg/g
Structure (SMILES): CC1COc2c(N3CCN(C)CC3)c(F)cc3c(=O)c(C(=O)O)cn1c23 (stereo not shown) [ofloxacin]
